Assays:
Type in all cases: biochemical
[1] = biological target: JAK2 (Homo sapiens, UniProt O60674); experiment: JAK2 inhibition assay (radioactive enzyme assay, as for JAK3); conditions: average Ki if more than one value determined
Procedure, shortened: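 Both kinases: poly(Glu)4Tyr substrate in 100 mM HEPES pH 7.4, 10 mM MgCl2, 1 mM DTT. Run 20 min at 25° C, TCA stop, filter-bound ³³P counted, Ki(app) fitted after background subtraction. JAK3: final [γ-³³P]ATP 5 μM, enzyme added as 2 nM solution. JAK2: final poly(Glu)4Tyr 15 μM, final ATP 12 μM.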

[2] = biological target: T1, JAK3 (Homo sapiens, UniProt P52333); experiment: JAK3 inhibition assay (standard radioactive enzyme assay); conditions: average Ki if more than one value determined
T1 sequence (P52333 1-1124): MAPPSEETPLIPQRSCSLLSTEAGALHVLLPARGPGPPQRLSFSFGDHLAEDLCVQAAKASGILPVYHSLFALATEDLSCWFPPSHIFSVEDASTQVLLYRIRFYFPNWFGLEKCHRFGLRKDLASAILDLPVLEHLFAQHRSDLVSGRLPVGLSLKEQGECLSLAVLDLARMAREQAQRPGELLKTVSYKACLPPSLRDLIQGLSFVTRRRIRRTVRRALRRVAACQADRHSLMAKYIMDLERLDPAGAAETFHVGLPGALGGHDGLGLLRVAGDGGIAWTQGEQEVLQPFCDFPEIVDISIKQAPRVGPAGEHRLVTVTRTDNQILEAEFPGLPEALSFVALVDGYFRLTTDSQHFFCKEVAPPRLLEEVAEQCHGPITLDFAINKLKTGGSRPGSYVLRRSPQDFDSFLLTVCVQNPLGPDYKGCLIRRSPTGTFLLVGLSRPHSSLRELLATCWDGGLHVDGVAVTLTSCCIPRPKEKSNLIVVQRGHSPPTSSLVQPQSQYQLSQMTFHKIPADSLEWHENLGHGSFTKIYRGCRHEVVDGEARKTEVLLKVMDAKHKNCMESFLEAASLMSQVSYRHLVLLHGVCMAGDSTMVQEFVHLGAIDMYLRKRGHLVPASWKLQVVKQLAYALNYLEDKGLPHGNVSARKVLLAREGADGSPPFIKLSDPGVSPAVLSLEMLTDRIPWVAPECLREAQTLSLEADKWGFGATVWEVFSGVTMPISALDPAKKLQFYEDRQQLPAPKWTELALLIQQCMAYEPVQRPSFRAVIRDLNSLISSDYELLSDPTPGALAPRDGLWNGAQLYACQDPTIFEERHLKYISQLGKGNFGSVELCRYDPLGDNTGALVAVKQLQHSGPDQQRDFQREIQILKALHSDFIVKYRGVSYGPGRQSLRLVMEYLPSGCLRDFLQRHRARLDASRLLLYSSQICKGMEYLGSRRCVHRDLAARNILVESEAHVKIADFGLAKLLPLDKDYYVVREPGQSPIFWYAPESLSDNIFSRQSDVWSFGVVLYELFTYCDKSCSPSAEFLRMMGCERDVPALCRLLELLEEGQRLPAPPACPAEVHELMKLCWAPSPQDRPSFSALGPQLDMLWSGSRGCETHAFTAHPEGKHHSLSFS

[3] = biological target: T2, full length Aurora-A (AA 1-403) (Homo sapiens, UniProt O14965); experiment: Aurora-A inhibition assay, standard coupled enzyme system; conditions: average Ki if more than one value determined
T2 construct: full length Aurora-A (AA 1-403)
T2 sequence (O14965 1-403): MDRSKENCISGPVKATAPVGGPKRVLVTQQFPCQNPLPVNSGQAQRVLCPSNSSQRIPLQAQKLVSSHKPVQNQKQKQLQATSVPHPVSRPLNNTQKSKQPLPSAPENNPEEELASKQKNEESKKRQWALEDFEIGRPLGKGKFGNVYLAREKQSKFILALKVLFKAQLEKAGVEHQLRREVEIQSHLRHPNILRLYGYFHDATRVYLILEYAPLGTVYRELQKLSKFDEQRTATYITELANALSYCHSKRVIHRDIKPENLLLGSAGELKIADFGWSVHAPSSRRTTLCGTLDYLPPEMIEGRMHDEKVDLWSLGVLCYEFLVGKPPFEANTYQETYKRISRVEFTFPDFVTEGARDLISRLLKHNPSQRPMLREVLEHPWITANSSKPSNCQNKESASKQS

[4] = biological target: T3, ROCK I (AA 6-553) (Homo sapiens, UniProt Q13464); experiment: ROCK inhibition assay, standard coupled enzyme system ("Enzyme"); conditions: enzyme-linked assay
T3 construct: ROCK I (AA 6-553)
Procedure, shortened: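 ROCK I (AA 6-553) at 45 nM and 30 °C with 45 μM ATP and 200 μM peptide, in 100 mM HEPES pH 7.5, 10 mM MgCl2, 25 mM NaCl, 2 mM DTT, 1.5% DMSO. ADP output read by a PK/LDH coupled system: 2.5 mM PEP, 350 μM NADH, 30 μg/ml PK, 10 μg/ml LDH.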

JAK2, sequence (O60674 whole entry, species assumed): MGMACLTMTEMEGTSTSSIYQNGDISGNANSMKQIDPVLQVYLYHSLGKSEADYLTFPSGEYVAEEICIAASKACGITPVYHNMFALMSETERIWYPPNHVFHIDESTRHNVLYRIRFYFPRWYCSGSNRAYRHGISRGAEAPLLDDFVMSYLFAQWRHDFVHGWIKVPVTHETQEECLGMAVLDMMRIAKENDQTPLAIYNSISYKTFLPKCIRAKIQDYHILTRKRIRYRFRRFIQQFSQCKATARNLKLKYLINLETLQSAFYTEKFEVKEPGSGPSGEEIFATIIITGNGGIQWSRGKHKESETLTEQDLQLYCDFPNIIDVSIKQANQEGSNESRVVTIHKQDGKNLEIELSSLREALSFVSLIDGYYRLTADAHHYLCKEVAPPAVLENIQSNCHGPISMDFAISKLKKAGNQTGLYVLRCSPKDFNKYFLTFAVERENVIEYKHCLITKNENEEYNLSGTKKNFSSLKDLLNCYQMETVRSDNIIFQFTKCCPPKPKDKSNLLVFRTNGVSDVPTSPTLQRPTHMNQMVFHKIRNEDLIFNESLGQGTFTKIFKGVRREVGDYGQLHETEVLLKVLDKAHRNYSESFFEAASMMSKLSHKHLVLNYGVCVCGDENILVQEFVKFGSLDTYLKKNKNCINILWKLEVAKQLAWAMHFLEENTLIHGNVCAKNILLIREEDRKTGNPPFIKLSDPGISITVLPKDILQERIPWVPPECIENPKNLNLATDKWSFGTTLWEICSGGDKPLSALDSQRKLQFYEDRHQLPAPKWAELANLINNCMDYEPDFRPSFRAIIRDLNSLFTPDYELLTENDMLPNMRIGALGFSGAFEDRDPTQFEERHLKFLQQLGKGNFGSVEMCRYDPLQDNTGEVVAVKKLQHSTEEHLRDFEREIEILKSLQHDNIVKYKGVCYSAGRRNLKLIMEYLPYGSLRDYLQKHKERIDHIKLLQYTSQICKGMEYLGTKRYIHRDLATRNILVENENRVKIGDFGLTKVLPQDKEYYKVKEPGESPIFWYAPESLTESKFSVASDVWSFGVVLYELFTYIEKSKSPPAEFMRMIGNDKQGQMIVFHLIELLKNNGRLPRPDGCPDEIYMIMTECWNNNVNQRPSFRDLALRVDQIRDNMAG
T3 sequence (Q13464 6-553, species assumed): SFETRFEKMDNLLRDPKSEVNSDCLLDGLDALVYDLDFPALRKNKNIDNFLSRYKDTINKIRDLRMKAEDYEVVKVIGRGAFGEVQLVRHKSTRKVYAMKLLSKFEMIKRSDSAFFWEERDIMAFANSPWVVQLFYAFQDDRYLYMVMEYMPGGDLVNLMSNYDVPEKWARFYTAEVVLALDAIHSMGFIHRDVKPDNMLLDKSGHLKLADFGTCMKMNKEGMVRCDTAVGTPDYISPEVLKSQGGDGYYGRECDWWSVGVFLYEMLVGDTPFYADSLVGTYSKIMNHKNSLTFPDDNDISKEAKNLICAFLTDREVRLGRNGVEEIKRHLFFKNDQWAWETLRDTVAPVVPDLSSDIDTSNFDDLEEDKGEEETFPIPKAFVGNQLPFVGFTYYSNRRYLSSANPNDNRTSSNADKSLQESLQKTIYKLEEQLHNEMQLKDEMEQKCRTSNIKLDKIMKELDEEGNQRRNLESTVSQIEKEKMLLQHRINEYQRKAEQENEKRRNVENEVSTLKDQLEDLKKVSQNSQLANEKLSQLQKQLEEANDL

Compound | Ki [1] | Ki [2] | Ki [3] | Ki [4]
COC(=O)c1ccc(-c2c[nH]c3ncc(Cl)cc23)nc1NCc1ccccc1 [Compound 43] | 500 to 5000 nM | 500 to 5000 nM | < 500 nM | 500 to 5000 nM
O=C(O)c1ccc(NCc2ccccc2)nc1-c1c[nH]c2ncc(Cl)cc12 [Compound 44] | 500 to 5000 nM | 500 to 5000 nM | < 500 nM | 500 to 5000 nM
CC(=O)N1[C@H](C)CN(c2cccc(-c3c[nH]c4ncc(C(=O)N5C[C@@H](C)N[C@@H](C)C5)cc34)n2)C[C@@H]1C [Compound 52] | > 5000 nM | > 5000 nM | 500 to 5000 nM | 500 to 5000 nM
CC(=O)N1[C@H](C)CN(c2cccc(-c3c[nH]c4ncc(C(=O)N5CCCCC5)cc34)n2)C[C@@H]1C [Compound 54] | 500 to 5000 nM | 500 to 5000 nM | < 500 nM | 500 to 5000 nM
CC(=O)N1[C@H](C)CN(c2cccc(-c3c[nH]c4ncc(C(=O)N5CCN(C)CC5)cc34)n2)C[C@@H]1C [Compound 57] | > 5000 nM | 500 to 5000 nM | 500 to 5000 nM | 500 to 5000 nM
CC(=O)N1[C@H](C)CN(c2cccc(-c3c[nH]c4ncc(C(=O)N(C)C)cc34)n2)C[C@@H]1C [Compound 60] | 500 to 5000 nM | 500 to 5000 nM | 500 to 5000 nM | 500 to 5000 nM
CC(=O)N1[C@H](C)CN(c2nc(-c3c[nH]c4ncc(Cl)cc34)c(F)cc2C#N)C[C@@H]1C [Compound 68] | < 500 nM | < 500 nM | < 500 nM | 500 to 5000 nM
CC(=O)N1[C@H](C)CN(c2cccc(-c3c[nH]c4ncc(NC(=O)Oc5ccccc5)cc34)n2)C[C@@H]1C [Compound 69] | < 500 nM | < 500 nM | 500 to 5000 nM | 500 to 5000 nM
CCOC(=O)Nc1cnc2[nH]cc(-c3cccc(N4C[C@@H](C)N(C(C)=O)[C@@H](C)C4)n3)c2c1 [Compound 70] | < 500 nM | < 500 nM | 500 to 5000 nM | 500 to 5000 nM
CC(=O)N1[C@H](C)CN(c2nc(-c3c[nH]c4ncc(Cl)cc34)c(F)cc2C(N)=O)C[C@@H]1C [Compound 72] | 500 to 5000 nM | < 500 nM | < 500 nM | 500 to 5000 nM
CC(=O)N1[C@H](C)CN(c2nc(-c3c[nH]c4ncc(Cl)cc34)ccc2[N+](=O)[O-])C[C@@H]1C [Compound 75] | < 500 nM | < 500 nM | < 500 nM | < 500 nM
CC(=O)N1[C@H](C)CN(c2nc(-c3c[nH]c4ncc(Cl)cc34)ccc2N)C[C@@H]1C [Compound 76] | < 500 nM | < 500 nM | < 500 nM | 500 to 5000 nM
CC(=O)N1[C@H](C)CN(c2ccc([N+](=O)[O-])c(-c3c[nH]c4ncc(Cl)cc34)n2)C[C@@H]1C [Compound 78] | < 500 nM | < 500 nM | < 500 nM | 500 to 5000 nM
CC(=O)N1[C@H](C)CN(c2nc(-c3c[nH]c4ncc(Cl)cc34)cc(C)c2C#N)C[C@@H]1C [Compound 79] | < 500 nM | < 500 nM | < 500 nM | 500 to 5000 nM
CC(=O)N1[C@H](C)CN(c2cc(C)c(C#N)c(-c3c[nH]c4ncc(Cl)cc34)n2)C[C@@H]1C [Compound 80] | < 500 nM | < 500 nM | < 500 nM | 500 to 5000 nM
CC(=O)N1[C@H](C)CN(c2ccc(N)c(-c3c[nH]c4ncc(Cl)cc34)n2)C[C@@H]1C [Compound 81] | 500 to 5000 nM | 500 to 5000 nM | < 500 nM | 500 to 5000 nM
CC(=O)N1[C@H](C)CN(c2nc(-c3c[nH]c4ncc(Cl)cc34)ccc2C#N)C[C@@H]1C [Compound 92] | < 500 nM | < 500 nM | < 500 nM | < 500 nM
CC(=O)N1[C@H](C)CN(c2ccc(C#N)c(-c3c[nH]c4ncc(Cl)cc34)n2)C[C@@H]1C [Compound 93] | < 500 nM | < 500 nM | < 500 nM | 500 to 5000 nM
CC(=O)N1[C@H](C)CN(c2cccc(-c3c[nH]c4ncc(OCCN5CCOCC5)cc34)n2)C[C@@H]1C [Compound 95] | 500 to 5000 nM | 500 to 5000 nM | 500 to 5000 nM | 500 to 5000 nM
CC(=O)N1[C@H](C)CN(c2cccc(-c3c[nH]c4ncc(OC5CCOC5)cc34)n2)C[C@@H]1C (stereo partly drawn) [Compound 96] | < 500 nM | < 500 nM | 500 to 5000 nM | 500 to 5000 nM
CC(=O)N1[C@H](C)CN(c2cc(C(N)=O)cc(-c3c[nH]c4ncc(Cl)cc34)n2)C[C@@H]1C [Compound 97] | < 500 nM | < 500 nM | < 500 nM | 500 to 5000 nM
CC(=O)N1[C@H](C)CN(c2cc(C#N)cc(-c3c[nH]c4ncc(Cl)cc34)n2)C[C@@H]1C [Compound 98] | < 500 nM | < 500 nM | < 500 nM | 500 to 5000 nM

The next lines start with the values.

Ki [1] | Ki [2] | Ki [3] | Ki [4] | Compound
< 500 nM | < 500 nM | < 500 nM | 500 to 5000 nM | COC(=O)c1ccc(NCc2ccccc2)nc1-c1c[nH]c2ncc(Cl)cc12 [Compound 45]
< 500 nM | < 500 nM | < 500 nM | 500 to 5000 nM | NC(=O)c1ccc(-c2c[nH]c3ncc(Cl)cc23)nc1NCc1ccccc1 [Compound 46]
< 500 nM | < 500 nM | 500 to 5000 nM | 500 to 5000 nM | CC(=O)N1[C@H](C)CN(c2cccc(-c3c[nH]c4ncc(C(=O)O)cc34)n2)C[C@@H]1C [Compound 47]
< 500 nM | < 500 nM | < 500 nM | 500 to 5000 nM | Fc1cnc2[nH]cc(-c3cccc(NCc4ccccc4)n3)c2c1 [Compound 48]
< 500 nM | < 500 nM | 500 to 5000 nM | 500 to 5000 nM | CC(=O)N1CCCN(c2cccc(-c3c[nH]c4ncc(F)cc34)n2)CC1 [Compound 49]
< 500 nM | < 500 nM | 500 to 5000 nM | < 500 nM | CC(=O)N1[C@H](C)CN(c2cccc(-c3c[nH]c4ncc(F)cc34)n2)C[C@@H]1C [Compound 50]
< 500 nM | < 500 nM | < 500 nM | < 500 nM | CC(=O)N1[C@H](C)CN(c2cccc(-c3c[nH]c4ncc(C(=O)OC(C)C)cc34)n2)C[C@@H]1C [Compound 53]
< 500 nM | < 500 nM | 500 to 5000 nM | 500 to 5000 nM | CC(=O)N1[C@H](C)CN(c2cccc(-c3c[nH]c4ncc(C(=O)NC5CCCCC5)cc34)n2)C[C@@H]1C [Compound 58]
< 500 nM | < 500 nM | 500 to 5000 nM | 500 to 5000 nM | CNC(=O)c1cnc2[nH]cc(-c3cccc(N4C[C@@H](C)N(C(C)=O)[C@@H](C)C4)n3)c2c1 [Compound 59]
< 500 nM | < 500 nM | 500 to 5000 nM | 500 to 5000 nM | COC(=O)Nc1cnc2[nH]cc(-c3cccc(N4C[C@@H](C)N(C(C)=O)[C@@H](C)C4)n3)c2c1 [Compound 66]
< 500 nM | < 500 nM | < 500 nM | 500 to 5000 nM | CC(=O)N1[C@H](C)CN(c2cc(C(=O)O)cc(-c3c[nH]c4ncc(Cl)cc34)n2)C[C@@H]1C [Compound 67]

Reference: patent US8501446B2 (Vertex Pharmaceuticals Incorporated, priority 2004, dated 2013)
